Laboratory results: patent publication US20240189278A1, “NOVEL COMPOUNDS AND METHODS FOR INCREASING KLOTHO GENE EXPRESSION” (Klotho Therapeutics, Inc., priority 2017, published 2024)

Assays:
eNOS = assay: Western blot of eNOS and p-eNOS, aortas of aged mice; type: in vivo, mouse
Experimental: (§1) Animal study protocols. This example was performed according to the guide lines of the National Institute of Health on the care and use of laboratory animals and approved by the institutional Animal Care and Use Committee of University of Oklahoma Health Science Center. AU mice were housed in cages at room temperature (2S±PC) and were provided with Purina laboratory chow No 5001) and tap Water and lithium. 6 adult mice (12 months) and 20 old mice (24-26 months) mice were next in this study. The old (aged) mice were randomly divided into three subgroups and each group had 6 or 7 mice. One subgroup received compound H (10 mg/kg/day1, IP, Enamine LLC, Monmouth Jct., NJ) and one group received an equal volume of DMSO (dimethyl sulfoxide, 5%) and served as a control. The third group received no treatment Blood pressure was measured before and after treatment with the active agent at 1 week and 2 week. Pulse wave velocity (PWV) was measured after 2 weeks treatment with active agent all animals were sacrificed and perfused transcardially with PBS under deep anesthesia (ketamine xylazine, 90/10 mg, IP). The aortas were then quickly removed, washed and cut into pieces for subsequent analyses.
Western Blot Analysis: Protein samples from the thoracic aorta were prepared in Lysis buffer as described previously. The proteins ([…] were resolved by SOS-PAGE and transferred to a nitrocellulose membrane (Bio-Rad). The membrane was then incubated overnight (4° C.) with a primary antibody against collagen-1-elastin. M1′v1P2; MMP9, ALP (Abeam1 1:1000), TGF-1, TGF˜N3 (Santa Cmz, 1:100). RUX2, or aNTulmliu (Cell Signaling. 1:1000). Goat autimouse or goat anti rabbit horseradish peroxidase (1:2000 . . . 1:5,000; Santa Cruz Biotechnology) was used as a secondary antibody find incubated for 1 hour at room temperature. Specific proteins were detected by chemiluminescent methods using Amersham™ western blotting detection reagents (GE Healthcare, UK). Protein abundance on western blots was quantified densitometry using Image lab software (Bio-Rad, Hercules, CA).

Klotho gene = assay: Methylation analyses of Klotho gene (methylation-specific PCR); type: in vivo, mouse; conditions: kidney of aged mice, 2 weeks treatment
Experimental: as §1, with “The aortas were then quickly removed, washed and cut into pieces for subsequent analyses.” left out
Methylation Analyses of Klotho Gene: The methylation status of CpG islands of mice Klotho gene was analyzed using methylation-specific PCR (MSP) and bisulfite sequencing. […] The methylation index was calculated as (band intensity of MSP with methylated primers)/(band intensity of inputted control). […]

Compound: O=C(Nc1ccccc1Cl)c1c[nH]c2ccccc12 [active agent, N-(2-chlorophenyl)-Ul-indde-3-carboxamide]
- eNOS activity (eNOS; aortas of aged mice): increased
- eNOS expression (eNOS; old mice, western blot): increased
- p-eNOS expression (eNOS; old mice, western blot): increased
- Methylation of Klotho gene (Klotho gene): inhibited
